Assay results: patent US5616573A, “Glucocorticoids” (Schering Aktiengesellschaft, priority 1993, dated 1997)
*1 amine or outer side, *2 acyl side, *3 side chain or, on linkers, in order; H or OH if unused. Where a SMILES comes first, the peptide text is derived from it. [ ]: non-standard residue; d: D form. The star is where a group is joined. Methylprednisolone(17-OCOEt) = CCC(=O)O[C@]1(C(=O)CO*)CC[C@H]2[C@@H]3C[C@H](C)C4=CC(=O)C=C[C@]4(C)[C@H]3[C@@H](O)C[C@@]21C; X2 = C[C@@H]1C[C@H]2[C@@H]3C[C@H](F)C4=CC(=O)C=C[C@]4(C)[C@H]3[C@@H](O)C[C@]2(C)[C@H]1C(=O)CO*; Phthalimidoacetyl = O=C1c2ccccc2C(=O)N1CC(=O)*; Diphenylacetyl = O=C(C(c1ccccc1)c1ccccc1)*; Fmoc = O=C(OCC1c2ccccc2-c2ccccc21)*; 2Naphthoyl = O=C(c1ccc2ccccc2c1)*; X6 = O=C(CCn1c2ccccc2c2ccccc21)*; X7 = O=S(=O)(c1ccc(Cl)cc1)*; X8 = c1ccc(N(c2ccccc2)*)cc1; MeOSuc = COC(=O)CCC(=O)*; Cbz = O=C(OCc1ccccc1)*; X4 = O=C(C=Cc1ccccc1)*; Boc = CC(C)(C)OC(=O)*; Aib = CC(C)(N)C(=O)O; CO = O=C([*:1])[*:2]; CH2Cl = ClC*

Legend:
rat ear = assay: Local antiinflammatory action: modified rat ear test according to Tonelli (croton oil); format: in vivo; conditions: topical, * = significant (p < 0.05); for Edema [% inhibition]: ear weight, 16 hours after irritant; for Infiltration [% inhibition]: granulocytic infiltrate (myeloperoxidase and leukocyte-elastase), 16 hours
Description: The antiinflammatory activity of the corticoid-21-oligopeptide esters is performed in a modified rat ear test according to Tonelli. The modifications are based on changes of irritant solution (4% croton oil, 10% DMSO in ethanol), the type of administration (application of the solution with pipette) and the evaluation of the test 16 hours after administration of the irritant solution. At this time, both the inhibition of the edema by measuring the ear weight and the inhibition of the granulocytic infiltrate by measuring the granulocyte marker myeloperoxidase and leukocyte-elastase in the ear homogenate can be determined. The group size was 6 animals in each case.

Esterases of Rat Skin = assay: Cleavage in the Homogenate of Normal Rat Skin (unspecific cleavage by esterases of rat skin); format: in vitro ADME; conditions: percent of hydrolysis rate of 6α-methylprednisolone-17-propionate-21-acetate; approximately 100 μmol/l, pH=7.4, 37° C.
Description: (§1) The homogenate of the skin of male rats (0.1 mol/l of phosphate buffer, pH=7.4) is centrifuged for 20 minutes at 10,000 g. The supernatant is adjusted in phosphate buffer to a protein concentration of 3 mg/ml. The test substances in 20 μl of ethanol are added to 1 ml of this homogenate. The final concentration of the corticoid derivatives is approximately 100 μmol/l. The incubation takes place for different periods at 37° C. At the end of incubation, the samples are extracted three times with 3 ml of chloroform. The combined extracts are evaporated to dryness under nitrogen and taken up with 100 μl of ethanol. The ethanolic solutions are mixed with the same volume of water and the saponification products are separated by HPLC (RP 18, acetonitrile/water-gradient, detection 240 nm). The relative hydrolysis rate is indicated in percent of the hydrolysis rate of the 6α-methylprednisolone-17-propionate-21-acetate.

Leukocyte Elastase = molecular target: T1, Leukocyte Elastase (Homo sapiens, UniProt P08246); assay: Cleavage of Glucocorticoid-21-Oligopeptide Esters by Leukocyte Elastase in the lysate of human neutrophilic granulocytes; format: biochemical; conditions: for Relative Hydrolysis Rate [%]: lysate of human neutrophilic granulocytes, 10^6 cells per ml, 1 hour at 37° C., Fmoc-Ala-Ala-Pro-Val-O-MPP is used as reference
T1 construct: also pure human sputum elastase (Elastin Products)
T1 sequence (P08246 30-267): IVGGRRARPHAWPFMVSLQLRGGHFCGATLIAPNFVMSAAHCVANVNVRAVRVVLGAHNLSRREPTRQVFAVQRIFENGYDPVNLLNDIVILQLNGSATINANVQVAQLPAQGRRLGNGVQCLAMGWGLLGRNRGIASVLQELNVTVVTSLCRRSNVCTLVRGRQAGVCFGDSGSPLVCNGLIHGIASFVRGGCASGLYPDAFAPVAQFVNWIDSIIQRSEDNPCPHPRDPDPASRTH
Description: as §1
Polymorphonuclear granulocytes are isolated from donor blood. The cells are lysed in a density of 10^6 cells per ml. 1 ml each of the lysate is mixed with 20 μl of ethanolic corticoid solution (5 mmol/l) After 1 hour of incubation at 37° C., the samples are extracted three times with 3 ml of chloroform and worked up as described above for HPLC analysis. The cleavage of the prodrugs according to the invention can be inhibited under these test conditions by the addition of the specific elastase inhibitor MeO-succinyl-Ala-Ala-Pro-Val-chloromethylketone to 90%. Furthermore, the compounds are also hydrolyzed by pure human sputum-elastase (elastin products).

[1] = concentration 0.003 (unit not given)
[2] = concentration 0.03 (unit not given)
[3] = concentration 0.3 (unit not given)

CCC(=O)O[C@]1(C(=O)COC(C)=O)CC[C@H]2[C@@H]3C[C@H](C)C4=CC(=O)C=C[C@]4(C)[C@H]3[C@@H](O)C[C@@]21C [6α-methylprednisolone-17-propionate-21-acetate, reference compound]
Edema [% inhibition] (rat ear; [1]): 44% | Infiltration [% inhibition] (rat ear; [1]): 12% | Edema [% inhibition] (rat ear; [2]): 62% | Infiltration [% inhibition] (rat ear; [2]): 45% | Edema [% inhibition] (rat ear; [3]): 67% | Infiltration [% inhibition] (rat ear; [3]): 78% | Relative Hydrolysis Rate [%] (Esterases of Rat Skin): 100%

CCC(=O)O[C@]1(C(=O)COC(=O)[C@@H](NC(=O)[C@@H]2CCCN2C(=O)[C@H](C)NC(=O)[C@H](C)NC(=O)OCc2ccccc2)C(C)C)CC[C@H]2[C@@H]3C[C@H](C)C4=CC(=O)C=C[C@]4(C)[C@H]3[C@@H](O)C[C@@]21C [Example 5, N-(N-(N-(N-(Phenylmethoxycarbonyl)-L-alanyl)-L-alanyl)-L-prolyl) -L-valine [11β21-dihydroxy-3,20-dioxo-6α-methyl-17-propionyloxy-pregna-1,4-dien-21-yl] ester] (Cbz-AAPV-{Methylprednisolone(17-OCOEt)})
Relative Hydrolysis Rate [%] (Leukocyte Elastase): 160-230%

CCC(=O)O[C@]1(C(=O)COC(=O)[C@@H](NC(=O)[C@@H]2CCCN2C(=O)[C@H](C)NC(=O)[C@H](C)NC(=O)C(c2ccccc2)c2ccccc2)C(C)C)CC[C@H]2[C@@H]3C[C@H](C)C4=CC(=O)C=C[C@]4(C)[C@H]3[C@@H](O)C[C@@]21C [Example 10, N-(N-(N-(N-((Diphenylmethyl)carbonyl)-L-alanyl)-L-alanyl)-L -prolyl)-L-valine [11β,21-dihydroxy-3,20-dioxo-6α-methyl-17-propionyloxy-pregna-1,4-dien-21-yl] ester] (Diphenylacetyl-AAPV-{Methylprednisolone(17-OCOEt)})
Relative Hydrolysis Rate [%] (Esterases of Rat Skin): 6%

CCC(=O)O[C@]1(C(=O)COC(=O)[C@@H](NC(=O)[C@@H]2CCCN2C(=O)[C@H](C)NC(=O)[C@H](C)NC(=O)N(c2ccccc2)c2ccccc2)C(C)C)CC[C@H]2[C@@H]3C[C@H](C)C4=CC(=O)C=C[C@]4(C)[C@H]3[C@@H](O)C[C@@]21C [Example 11, N-(N-(N-(N-(Diphenylcarbamoyl)-L-alanyl)-L-alanyl)-L-prolyl)-L-valine [11β,21-dihydroxy-3,20-dioxo-6α-methyl-17-propionyloxy-pregna-1,4-dien-21-yl] ester] ({X8-CO}-AAPV-{Methylprednisolone(17-OCOEt)})
Relative Hydrolysis Rate [%] (Esterases of Rat Skin): 14%

CCC(=O)O[C@]1(C(=O)COC(=O)[C@@H](NC(=O)[C@@H]2CCCN2C(=O)[C@H](C)NC(=O)[C@H](C)NC(=O)c2ccc3ccccc3c2)C(C)C)CC[C@H]2[C@@H]3C[C@H](C)C4=CC(=O)C=C[C@]4(C)[C@H]3[C@@H](O)C[C@@]21C [Example 12, N-(N-(N-(N-(2-Naphthoyl)-L-alanyl)-L-alanyl)-L-prolyl)-L-valine [11β,21-dihydroxy-3,20-dioxo-6α-methyl-17-propionyloxy-pregna-1,4-dien-21-yl] ester] (2Naphthoyl-AAPV-{Methylprednisolone(17-OCOEt)})
Relative Hydrolysis Rate [%] (Esterases of Rat Skin): 4%

CCC(=O)O[C@]1(C(=O)COC(=O)[C@@H](NC(=O)[C@@H]2CCCN2C(=O)[C@H](C)NC(=O)[C@H](C)NC(=O)C=Cc2ccccc2)C(C)C)CC[C@H]2[C@@H]3C[C@H](C)C4=CC(=O)C=C[C@]4(C)[C@H]3[C@@H](O)C[C@@]21C [Example 13] (X4-AAPV-{Methylprednisolone(17-OCOEt)})
Relative Hydrolysis Rate [%] (Esterases of Rat Skin): 5%

CCC(=O)O[C@]1(C(=O)COC(=O)[C@@H](NC(=O)[C@@H]2CCCN2C(=O)[C@H](C)NC(=O)[C@H](C)NS(=O)(=O)c2ccc(Cl)cc2)C(C)C)CC[C@H]2[C@@H]3C[C@H](C)C4=CC(=O)C=C[C@]4(C)[C@H]3[C@@H](O)C[C@@]21C [Example 14, N-(N-(N-(N-(4-Chlorobenzenesulfonyl)-L-alanyl)-L-alanyl)-L -prolyl)-L-valine [11β,21-dihydroxy-3,20-dioxo-6α-methyl-17-propionyloxy-pregna-1,4-dien-21-yl] ester] (X7-AAPV-{Methylprednisolone(17-OCOEt)})
Relative Hydrolysis Rate [%] (Esterases of Rat Skin): 6%

CCC(=O)O[C@]1(C(=O)COC(=O)[C@@H](NC(=O)[C@@H]2CCCN2C(=O)[C@H](C)NC(=O)[C@H](C)NC(=O)CCn2c3ccccc3c3ccccc32)C(C)C)CC[C@H]2[C@@H]3C[C@H](C)C4=CC(=O)C=C[C@]4(C)[C@H]3[C@@H](O)C[C@@]21C [Example 16, N-(N-(N-(N-(3-(Carbazol-9-yl)-propionyl)-L-alanyl)-L-alanyl)-L -prolyl)-L-valine [11β,21-dihydroxy-3,20-dioxo-6α-methyl-17-propionyloxy-pregna-1,4-dien-21-yl] ester] (X6-AAPV-{Methylprednisolone(17-OCOEt)})
Relative Hydrolysis Rate [%] (Esterases of Rat Skin): 3%

CCC(=O)O[C@]1(C(=O)COC(=O)[C@@H](NC(=O)[C@@H]2CCCN2C(=O)[C@H](C)NC(=O)[C@H](C)NC(=O)CN2C(=O)c3ccccc3C2=O)C(C)C)CC[C@H]2[C@@H]3C[C@H](C)C4=CC(=O)C=C[C@]4(C)[C@H]3[C@@H](O)C[C@@]21C [Example 17, N-(N-(N-(N-(N-(Phthaloyl)-glycyl)-L-alanyl)-L-alanyl)-L-prolyl) -L-valine [11β,21-dihydroxy-3,20-dioxo-6α-methyl-17-propionyloxy-pregna-1,4-dien-21-yl] ester] (Phthalimidoacetyl-AAPV-{Methylprednisolone(17-OCOEt)})
Relative Hydrolysis Rate [%] (Esterases of Rat Skin): 49%

CCC(=O)O[C@]1(C(=O)COC(=O)[C@@H](NC(=O)[C@@H]2CCCN2C(=O)[C@H](C)NC(=O)[C@H](C)NC(=O)C(C)(C)NC(=O)OCC2c3ccccc3-c3ccccc32)C(C)C)CC[C@H]2[C@@H]3C[C@H](C)C4=CC(=O)C=C[C@]4(C)[C@H]3[C@@H](O)C[C@@]21C [Example 18, N-(N-(N-(N-(N-((9H-Fluoren-9-ylmethoxy)carbonyl)-2-amino-2-methyl-propionyl)-L-alanyl)-L-alanyl)-L-prolyl)-L-valine [11β,21-dihydroxy-3,20-dioxo-6α-methyl-17-propionyloxy-pregna-1,4-dien-21-yl] ester] (Fmoc-[Aib]AAPV-{Methylprednisolone(17-OCOEt)})
Relative Hydrolysis Rate [%] (Leukocyte Elastase): 130%

CC(C)[C@H](NC(=O)[C@@H]1CCCN1C(=O)[C@H](C)NC(=O)[C@H](C)NC(=O)OC(C)(C)C)C(=O)OCC(=O)[C@H]1[C@H](C)C[C@H]2[C@@H]3C[C@H](F)C4=CC(=O)C=C[C@]4(C)[C@H]3[C@@H](O)C[C@@]21C [Example 32, N-(N-(N-(N-((1,1-Dimethyl)-ethoxycarbonyl)-L-alanyl)-L-alanyl)-L -prolyl)-L-valine [6α-fluoro-11β,21-dihydroxy-16α-methyl-3,20dioxo-pregna-1,4-dien-21-yl] ester] (Boc-AAPV-X2)
Relative Hydrolysis Rate [%] (Leukocyte Elastase): 380%

CCCCC(=O)O[C@]1(C(=O)COC(=O)[C@@H](NC(=O)[C@@H]2CCCN2C(=O)[C@H](C)NC(=O)[C@H](C)NC(=O)OC(C)(C)C)C(C)C)[C@@H](C)C[C@H]2[C@@H]3CCC4=CC(=O)C=C[C@]4(C)[C@@]3(F)[C@@H](O)C[C@@]21C [Example 38, N-(N-(N-(N-((1,1-Dimethyl)ethoxycarbonyl)-L-alanyl)-L-alanyl)-L -prolyl)-L-valine [9α-fluoro-11β,21-dihydroxy-16β-methyl-3,20-dioxo-17-valeroyloxy-pregna-1,4-dien-21-yl] ester]
Relative Hydrolysis Rate [%] (Esterases of Rat Skin): 0%

COC(=O)CCC(=O)N[C@@H](C)C(=O)N[C@@H](C)C(=O)N1CCC[C@H]1C(=O)N[C@H](C(=O)CCl)C(C)C [MeO-succinyl-Ala-Ala-Pro-Val-chloromethylketone, reference compound] (MeOSuc-AAPV-CH2Cl)
Inhibition of the cleavage of the prodrugs (Leukocyte Elastase; addition of the specific elastase inhibitor to granulocyte lysate): 90%
